The test system of this assay is rat model of heart failure with reduced ejection fraction (HFrEF). Description: Rat MI model, captopril, Example 10 or combination, echocardiography. The arrangement: Left Ventricle Diameter (end diastole): unit not given here. The assay is classed as in vivo. Here is the method: A nonclinical efficacy pharmacology study is conducted in a rat model of heart failure with reduced ejection fraction (HFrEF) to evaluate cardiac function and structure changes after captopril treatment, Example 10 treatment or combination treatment.
The left coronary artery is permanently ligated. All rats are individually housed in a temperature and humidity controlled room and maintained on a 12 hour light/dark cycle. Two to three weeks after surgery, rats undergo transthoracic echocardiography for determination of ejection fraction (EF %) and left ventricle dimensions (LVD) using a Vevo 2100 ultrasound system. Rats are randomized across treatment groups according to EF % and LVD.
Measurements of EF % and LVD are expressed as mean values±standard error (SE). Statistical analysis is performed with JMP® 13 software (SAS Institute, Inc.; Cary, N.C.) and Dunnett's Test is used for statistical comparisons across treatment groups. Statistical significance is accepted at P<0.05.
Three weeks after MI surgery, animals are randomized to 2 treatment groups (Placebo or captopril, 2 g/L in drinking water, ad lib) according to EF % and LVD. Three weeks and four weeks after dosing starts, cardiac function (EF %) and structure (LVD) are evaluated by transthoracic echocardiography. Animals are further randomized to additional groups based on cardiac function (EF %) and structure (LVD) to the following groups: Placebo, Example 10, captopril and Example 10+captopril. Animals in the Example 10 groups receive a single injection on week 4 after the 2nd randomization. Cardiac function (EF %) and structure (LVD) are evaluated on week 5 and 6.

[1] abbreviates: Baseline (before captopril 2 g/L in drinking water).
Where [2] appears, read: Week 3 of captopril 2 g/L in drinking water.
[3] abbreviates: Week 4 (2nd randomization; before the single injection of Example 10).
Setting [4] is: Week 5 (single injection of Example 10 on week 4; captopril 2 g/L in drinking water).
[5] abbreviates: Week 6 (single injection of Example 10 on week 4; captopril 2 g/L in drinking water).

Marks after values point to notes of the source that are not given here.

`C[C@H](CS)C(=O)N1CCC[C@H]1C(=O)O` [Captopril, captopril]: the “Ejection Fraction” value is, setting by setting: under setting [1], 39.1%; under setting [2], 38.4%; under setting [3], 36.1%; under setting [4], 36.2%; under setting [5], 34.6%. Besides, the “Left Ventricle Diameter (end diastole)” value runs as follows: under setting [1], 8.66; under setting [2], 8.57; under setting [3], 8.64; under setting [4], 8.64*; under setting [5], 8.71*.

For the origin of these results see US11242370B2, “Neuregulin-4 compounds and methods of use” (Eli Lilly and Company, priority 2019, dated 2022).
